Test results: patent publication US10463670B2, “Use of non-peptide NK1 antagonists in a predetermined dose for the treatment of cancer” (SERVICIO ANDALUZ DE SALUD, priority 2013, dated 2019)
Where a SMILES comes first, the peptide text is derived from it. Bridges are numbered along the chain shown (N, C = ends). [ ]: non-standard residue; d: D form. The star is where a group is joined. NH(β-GlcNAc) = CC(=O)N[C@@H]1[C@@H](O)[C@H](O)[C@@H](CO)O[C@H]1N*; Dap = NC[C@H](N)C(=O)O

Assays:
cell proliferation = details: Singh et al. 2000; Bigioni et al. 2005; cited from earlier work
[1] = system: human lymphoma; reference BC-1; assay: Lymphoma BC-1 tumours in nude mice, Cisplatin alone or with Aprepitant; format: in vivo; details: Cisplatin 8 mg/kg on days 1 and 7, alone
Protocol: (§1) Immunocompromised female mice, 5-6 weeks of age were used, nu/nu Balb/c nude mice, provided by Harlan Iberica Barcelona (Spain). They were kept at 24° C. and in sterile conditions with food and water “ad libitum”. […] The tumour size was measured and the mice were evaluated for their state of health and weight daily. […] One of the groups was treated with 200 μl of placebo (control group) and the eight remaining groups with doses of 10 (group 1), 20 (group 2), 30 (group 3), 40 (group 4), 50 (group 5), 60 (group 6), 70 (group 7) and 80 (group 8) mg per kilogram of weight and day of the NK1 receptor antagonist Aprepitant. 3 animals were treated per group, during 28 days. All the mice were sacrificed at the end of the experiment. […] Immunocompromised female mice, 5-6 weeks of age were used, in the same conditions as explained in example 1. […] The tumour size was measured and the mice were evaluated for their state of health and weight daily. […] One of the groups was treated with two single doses of Cisplatin, of 8 mg per kilogram of weight, on days 1 and 7 of the experiment (control group). The eight remaining groups were treated with the same treatment as the control group and the doses of 1 (group 1), 3 (group 2), 5 (group 3), 6 (group 4), 7 (group 5), 8 (group 6), 9 (group 7) and 10 (group 8) mg per kilogram of weight and day, of the NK1 receptor antagonist Aprepitant. […]

[2] = system: human lung cancer; reference HCC-44; assay: Lung cancer HCC-44 tumours in nude mice, Cisplatin alone or with Aprepitant; format: in vivo; details: Cisplatin 8 mg/kg on days 1 and 7, alone
Protocol: Immunocompromised female mice, 5-6 weeks of age were used, nu/nu Balb/c nude mice, provided by Harlan Iberica Barcelona (Spain). They were kept at 24° C. and in sterile conditions with food and water “ad libitum”. […] The tumour size was measured and the mice were evaluated for their state of health and weight daily. […] One of the groups was treated with 200 μl of placebo (control group) and the eight remaining groups with doses of 10 (group 1), 20 (group 2), 30 (group 3), 40 (group 4), 50 (group 5), 60 (group 6), 70 (group 7) and 80 (group 8) mg per kilogram of weight and day of the NK1 receptor antagonist Aprepitant. 3 animals were treated per group, during 28 days. All the mice were sacrificed at the end of the experiment. […] Immunocompromised female mice, 5-6 weeks of age were used, in the same conditions as explained in example 1. […] The tumour size was measured and the mice were evaluated for their state of health and weight daily. […] One of the groups was treated with Cisplatin at 8 mg per kilogram of weight at single doses on days 1 and 7 of the experiment (control group) and the eight remaining groups with the same treatment as the control group and the doses of 1 (group 1), 3 (group 2), 5 (group 3), 6 (group 4), 7 (group 5), 8 (group 6), 9 (group 7) and 10 (group 8) mg per kilogram of weight and day, of the NK1 receptor antagonist Aprepitant. […]

[3] = system: human melanoma; reference MEL-HO; assay: Melanoma MEL-HO tumours in nude mice, Cisplatin alone or with Aprepitant; format: in vivo; details: Cisplatin 8 mg/kg on days 1 and 7, alone
Protocol: as §1

[4] = system: human neuroblastoma; reference KELLY; assay: Neuroblastoma KELLY tumours in nude mice, Cisplatin alone or with Aprepitant; format: in vivo; details: Cisplatin 8 mg/kg on days 1 and 7, alone
Protocol: as §1

[5] = system: human fibrosarcoma; reference HT-1080; assay: Fibrosarcoma HT-1080 tumours in nude mice, Cisplatin alone or with Aprepitant; format: in vivo; details: Cisplatin 8 mg/kg on days 1 and 7, alone
Protocol: as §1

[6] = system: human glioma; reference GAMG; assay: Glioma GAMG tumours in nude mice, Cisplatin alone or with Aprepitant; format: in vivo; details: Cisplatin 8 mg/kg on days 1 and 7, alone
Protocol: as §1

CC(=O)N[C@@H]1[C@@H](O)[C@H](O)[C@@H](CO)O[C@H]1NC(=O)C[C@@H]1NC(=O)[C@H](CC(C)C)NC(=O)[C@@H]2CNC(=O)C[C@H](NC1=O)C(=O)N[C@@H](Cc1c[nH]c3ccccc13)C(=O)N[C@@H](Cc1ccccc1)C(=O)N2 [MEN 11420, Nepadutant] (cyclo(D(NH(β-GlcNAc))DWF[Dap]L); lactam 2-5)
Blocking cell proliferation (cell proliferation): efficacy thereof in blocking cell proliferation

Cc1ccc(CC(=O)N(C)[C@H](Cc2ccc3ccccc3c2)C(=O)N[C@@H]2CCCC[C@@H]2NC(=O)c2c[nH]c3ccccc23)cc1 [MEN 11467]
Blocking cell proliferation (cell proliferation): efficacy thereof in blocking cell proliferation

CC(=O)NC1(c2ccccc2)CCN(CC[C@H](CN(C)C(=O)c2ccccc2)c2ccc(Cl)c(Cl)c2)CC1 [SR 48968]
Blocking cell proliferation (cell proliferation): efficacy thereof in blocking cell proliferation

N.N.[Cl][Pt][Cl] [Cisplatin]
Tumour size (mean volume of the tumour) ([1]; 7 days): 85 ± 6 cubic millimeters | Tumour size (mean volume of the tumour) ([1]; 14 days): 50 ± 3 cubic millimeters | Tumour size (mean volume of the tumour) ([2]; 7 days): 105 ± 4 cubic millimeters | Tumour size (mean volume of the tumour) ([2]; 14 days): 70 ± 7 cubic millimeters | Tumour size (mean volume of the tumour) ([3]; 7 days): 105 ± 6 cubic millimeters | Tumour size (mean volume of the tumour) ([3]; 14 days): 75 ± 6 cubic millimeters | Tumour size (mean volume of the tumour) ([4]; 7 days): 95 ± 8 cubic millimeters | Tumour size (mean volume of the tumour) ([4]; 14 days): 60 ± 8 cubic millimeters | Tumour size (mean volume of the tumour) ([5]; 7 days): 95 ± 5 cubic millimeters | Tumour size (mean volume of the tumour) ([5]; 14 days): 65 ± 5 cubic millimeters | Tumour size (mean volume of the tumour) ([6]; 7 days): 115 ± 7 cubic millimeters | Tumour size (mean volume of the tumour) ([6]; 14 days): 85 ± 6 cubic millimeters
